{"source": "patent US20150216870A1", "about": "“Combination of PI3K Inhibitor and C-Met Inhibitor” (Novartis AG, priority 2012, published 2015)", "key": {"U-87 MG": {"test_system": "U-87 MG", "assay": "CellTiter-Glo cell viability dose matrix in U-87 MG glioblastoma cells", "type": "cell-based, human", "details": "U87 MG (PTEN mutant, HGF expressing)", "description": "(§1) The PI3K inhibitor COMPOUND C and the c-MET receptor tyrosine kinase inhibitor 2-fluoro-N-methyl-4-[7-quinolin-6-yl-methyl)-imidazo[1,2-b][1,2,4]triazin-2yl]benzamide are evaluated in combination in glioblastoma tumor models. COMPOUND C (10 mM) and 2-fluoro-N-methyl-4-[7-quinolin-6-yl-methyl)-imidazo[1,2-b][1,2,4]triazin-2yl]benzamide (10 mM) are dissolved in DMSO, and are stored in aliquots at −20° C.\n(§2) Human Glioblastoma cell lines, U-87 MG (PTEN mutant and HGF expressing line), H4 (PTEN mutant and HGF expressing line), A172 (PTEN mutant line with low HGF expression level) and LN-229 (PTEN wildtype and HGF low) are purchased from American Type Cell Collection and are maintained in a humidified incubator at 37° C. in 5% CO2 in recommended media. All four cell lines express detected MET at the mRNA level.\n(§3) The cells are passaged twice a week and the medium is changed every 2 to 3 days. […]\n(§4) Cell viability is determined by measuring cellular ATP content using the CellTiter-Glo® (CTG) luminescent cell viability assay (Promega). […] An equal volume of the CTG reagents is added to each well at the end of the compound treatment and luminescence is recorded on an Envision plate reader (Perkin Elmer). Reduced and enhanced luminescent signal values (responses) are calculated relative to untreated (control) cells. […]"}, "H4": {"test_system": "H4", "assay": "CellTiter-Glo cell viability dose matrix in H4 glioblastoma cells", "type": "cell-based, human", "details": "H4 (PTEN mutant, HGF expressing)", "description": "as §1, §2, §3, §4"}, "LN-229": {"test_system": "LN-229", "assay": "CellTiter-Glo cell viability dose matrix in LN-229 glioblastoma cells", "type": "cell-based, human", "details": "LN229 (PTEN wildtype, HGF low)", "description": "as §1, §2, §3, §4"}, "[1]": {"assay": "Toxicity (deaths) in U-87 MG xenograft study", "type": "in vivo", "excerpt": "Animals are weighed on Days 1-5, on each treatment day (except weekends), and twice weekly thereafter, until the end of the study. Group mean BW nadir determinations exclude measurements taken after more than 50% of the assessable mice in the group had exited the study, and also excluded any animal that was classified as an NTR death during the study. Acceptable toxicity for the maximum tolerated dose (MTD) is defined as a group mean BW loss of less than 15% during the test, and not more than one TR death among ten animals. Any animal with BW losses exceeding 15% for three consecutive measurements, or with a BW loss exceeding 20% for one measurement, are euthanized, and classified as a TR death unless it was the first death in the group. A death is classified as Non-Treatment Related (NTR) if there was no evidence that the death is related to treatment side effects and the death occurs more than 14 days after dosing ended. NTR deaths are categorized as NTRa (due to accident or error), NTRu (due to unknown causes), or NTRm (necropsy-confirmed tumor dissemination by invasion and/or metastasis). To conserve animals while providing maximum information, the first death in a group was classified as NTRu; such an NTR death was to be reclassified as TR if two subsequent TR deaths are recorded in the same group."}, "[2]": {"test_system": "NCI-H1993 human non-small cell lung carcinoma xenograft", "assay": "NCI-H1993 xenograft tumor growth inhibition and tumor growth delay", "type": "in vivo, athymic nude mice", "details": "c-Met inhibitor 17.7 mg/kg p.o. b.i.d. to end", "excerpt": "In this experiment, the NCI-H1993 human non-small cell lung carcinoma xenograft model is used to assess the anti-tumor efficacy of the PI3K inhibitor COMPOUND D and c-Met inhibitor 2-fluoro-N-methyl-4-[7-quinolin-6-yl-methyl)-imidazo[1,2-b][1,2,4]triazin-2yl]benzamide as single agents or in combination. NCI-H1993 tumor cells obtained from the American Type Culture Collection (ATCC) are derived from a lymph node metastasis of a patient having a stage 3A lung adenocarcinoma and a history of smoking.\nFemale athymic nude mice (Crl:NU (Ncr)-Foxn1^nu, Charles River) are 8 weeks old, and have a body weight (BW) range of 16.1-26.2 g, on D1 of the study. The animals are fed ad libitum water (reverse osmosis, 1 ppm CI) and NIH 31 Modified and Irradiated Lab Diet® consisting of 18.0% crude protein, 5.0% crude fat, and 5.0% crude fiber. The mice are housed on irradiated Enrich-O'cobs™ Laboratory Animal Bedding in static microisolators on a 12-hour light cycle at 20-22° C. (68-72° F.) and 40-60% humidity.\nThe NCI-H1993 tumor line is obtained from the American Type Culture Collection and maintained at DRS_NC in RPMI-1640 medium containing 100 unites/penicillin G sodium, 100 µg/mL streptomycin sulfate, 25 µg/mL gentamicin, 10% fetal bovine serum, and 2 mM glutamine. The tumor cells are cultured in tissue culture flasks in a humidified incubator at 37° C. in an atmosphere of 5% CO2 and 95% air.\nThe tumor cells used for implementation are harvested during log phase growth and resuspended in cold PBS containing 50% Matrigel™ (BD Biosciences). Each mouse is injected subcutaneously in the right flank with 1×10^7 cells (0.2 mL cell suspension). Tumors are calipered in two dimensions to monitor growth as their mean volume approached the desired 200-250 mm^3 range. Tumor size, in mm^3, was calculated from: Tumor Volume=(width^2×length)/2, where width and length (in mm) are measurements of the tumor. Tumor weight can be estimated with the assumption that 1 mg is equivalent to 1 mm^3 of tumor volume. Fourteen days after tumor cell implantation, on D1 of the study, mice with individual tumor volumes of 172-256 mm^3 are sorted into groups of ten mice, with group mean tumor volumes of 206-215 mm^3.\nThe c-Met inhibitor 2-fluoro-N-methyl-4-[7-quinolin-6-yl-methyl)-imidazo[1,2-b][1,2,4]triazin-2yl]benzamide (HCl salt, 84.98% free base) is stored at 4° C. and is added to a volume of deionized water equal to 1/2 of the final volume and sonicated until dissolved to obtain a uniform 2× suspension. An equal volume of 0.5% methylcellulose: 0.1% Tween® 80 is added to provide a 1.77 mg/mL solution with final vehicle concentrations of 0.25% methylcellulose and 0.05% Tween® 80 in deionized water (Vehicle 1). Fresh solutions are prepared once daily for the […]. dosing and stored at room temperature until the a.m. dosing.\nCOMPOUND D is suspended at 3.0 mg/mL in 0.5% methylcellulose in deionized water. The vehicle is added in portions equal to 1/3 of the final volume. The suspension is vortexed after each addition, and then finally probe sonicated on ice to prepare a homogeneous white suspension. A fresh suspension is prepared weekly, stored at 4° C., and re-suspended prior to dosing.\nThe c-MET inhibitor and the vehicle is each administered via oral gavage (p.o.) twice daily for the duration of the study (b.i.d. to end). COMPOUND D is administered via oral gavage (p.o.) once daily for the duration of the study (qd to end). In combination therapies, COMPOUND D is dosed within 30 minutes after the c-Met inhibitor. In all groups, the dosing volume of 10 mL/kg (0.2 mL/20 g mouse) is scaled to the weight of each animal as determined on the day of dosing, except on weekends when the previous BW is carried forward.\nThe groups of nude mice (n=10/group) are treated as follows. Group 1 receive Vehicle 1 and Vehicle 2 and serve as controls for the study. […] Group 3 receives 30 mg/kg COMPOUND D monotherapy once daily for the duration of the study (qd to end)."}}, "note": "“Also recorded” adds a separate entry of the source.", "data": [{"molecule": "CNC(=O)c1ccc(-c2cnc3ncc(Cc4ccc5ncccc5c4)n3n2)cc1F", "note": "[c-Met inhibitor]", "values": [{"measurement": "anti-proliferative activity (single agent)", "setting": "U-87 MG", "value": "only moderate activities"}, {"measurement": "anti-proliferative activity (single agent)", "setting": "H4", "value": "only moderate activities"}, {"measurement": "anti-proliferative activity (single agent)", "setting": "LN-229", "value": "completely inactive"}, {"measurement": "Deaths", "setting": "[1]; c-Met inhibitor 17.7 mg/kg p.o. qd x21", "value": "(0)"}, {"measurement": "Deaths", "setting": "[1]; c-Met inhibitor 35.3 mg/kg p.o. qd x21", "value": "(0)"}, {"measurement": "% TGD", "setting": "[2]", "value": 97, "unit": "%"}, {"measurement": "D71 survivors", "setting": "[2]", "value": "four"}, {"measurement": "T-C", "setting": "[2]", "value": 24.2, "unit": "days"}, {"measurement": "T/C or T/T0", "setting": "[2]; D20", "value": 15, "unit": "%"}, {"measurement": "Median TTE", "setting": "[2]; endpoint 600 mm3", "value": 49.2, "unit": "days"}, {"measurement": "overall survival (in words)", "setting": "[2]; logrank vs control", "value": "significantly extends survival; also recorded: significant survival extension"}, {"measurement": "D20 tumor growth inhibition (in words)", "setting": "[2]; vs control Group 1", "value": "does not achieve significant inhibition relative to control; also recorded: non-significant D20 tumor growth inhibition"}]}]}
